Reference: patent US20100056443A1, “RADIOPHARMACEUTICAL TO BE USED IN DISTINCTION BETWEEN INFLAMMATIONS AND INFECTIONS IN ORTHOPAEDIC IMPLANTS” (priority 2006, published 2010)
No end group written: not given here.

Experiments:
Escherichia Coli = settings: cited from earlier work
[1] = system: Gram-positive bacteria (Streptococcus pyogenes, S. Aureus); settings: in words; including multi-resistant S. aureus and vancomycin-resistant Enterococcus Faecium; cited from earlier work
yeasts = settings: in words; b28: yeast C. albicans; cited from earlier work
Gram-negative bacteria = settings: in words; HBD-3: P. Aeruginosa, E. Coli; cited from earlier work
S. cerevisiae = settings: weak antimicrobial activity; cited from earlier work
S. Carnosous = settings: strong antimicrobial activity; cited from earlier work
B. cepacea = settings: weak antimicrobial activity; cited from earlier work
S. pneumoniae = settings: weak antimicrobial activity; cited from earlier work
S. Aureus [2] = settings: weak antimicrobial activity; cited from earlier work
P. aeruginosa = settings: strong antimicrobial activity; cited from earlier work
[3] = system: Gram-positive and Gram-negative bacteria; settings: cited from earlier work
E. Coli = test: In vitro control of the biological activity of radiomarked HBD-3 (colony count on agar plates); format: cell-based; settings: for Number of CFU existing in the plates: E. Coli
Description: (§1) The control was performed as described by Harwing et al. Methods Enzymology 1994, 236: 160-172. In particular, the aliquote portion (20 μl) of a bacterial suspension of S. Aureus containing 5×10^6 CFU/ml was incubated (2 hours at 37° C.) with 200 μl of radiomarked HBD-3 (1.2 μg) and 75 μl of a suitable dilution of a culture broth (Tryptic Soy Broth). After incubation, two samples with dilution factors equalling to 1:1345 and 1:13450 were derived from the mixture. Twentyfive μl of these samples were collected and sown with sterile rod onto plates containing a culture medium (agar plate). After incubation for 24 hours at 37° C. the colonies were counted. A value higher than 800 CFU was considered not assessable due to the difficulty in counting.
(§2) An analogous experiment was carried out, under the same conditions, by using 200 μl of sterile buffer instead of the radiomarked HBD-3.
Both tests illustrated above, aimed at testing the sensibility of S. Aureus to the radiomarked HBD-3, were repeated, under identical conditions, with E. Coli with the same purposes. The results are shown in Table III and in FIGS. 1 and 2.

infection by S. Aureus = test: Infection detection by 99mTc-HBD-3 in experimental animal model (tissue counting: infection vs sterile inflammation vs normal muscle); format: in vivo, Wistar male rats
Description: Tissue samples were collected from the infection and inflammation seats after 1, 3 and 5 hours as from the injection of the tracer for each group of rats. Such samples were counted in a well-like counter. The countings expressed in terms of cpm/g of tissue were compared to the countings of properly collected normal muscle tissue samples. […] The results have been interpreted as indicating a specific bond of radiomarked recombinant HBD-3 with the S. Aureus.
The rats Nr. 3, 6 and 9 had received a weight dose in marked product higher than the rats Nr. 2, 5 and 8 which, in turn, had received a dose of the same product higher than the rats 1, 4 and 7. As it can be seen, a greater ratio between countings measured onto the abscess seat and those recorded onto the inflammation seat and onto the normal muscle corresponds to a higher dose of radiomarked peptide. Such run lets assuming a dose-depending ratio of dependency of the radiopharmaceutical captation.

S. Aureus [4] = test: In vitro control of the biological activity of radiomarked HBD-3 (colony count on agar plates); format: cell-based; settings: for Number of CFU existing in the plates: S. Aureus, 1.2 μg radiomarked HBD-3, 2 hours at 37° C.
Description: as §1, §2

[5] = dilution 1:1345, >800 CFU not assessable

**Q.** Which Activity (Escherichia Coli; at micro-molecular concentrations) does the source give for “HBD-1: human β-defensin, constitutive expression (DHYNCVSSGGQCLYSACPIFTKIQGTCYRGKAKCCK; UniProt P60022 33-68, looked up)” here?
**A.** The Activity was “Bactericide*”.

**Q.** Which Activity [1] does the source give for “HBD-3: human beta-defensin-3, antimicrobial peptide weighing 5,15 kDa (GIINTLQKYYCRVRGGRCAVLSCLPKEEQIGKCSTRGRKCCRRKK; Beta-defensin 103; UniProt P81534 23-67, looked up)” here?
**A.** Its Activity is “Bactericide”.

**Q.** And the Activity (yeasts)?
**A.** Its Activity is “Bactericide”.

**Q.** What about the Activity (Gram-negative bacteria) of the same substance?
**A.** The Activity was “Bactericide”.

**Q.** Which results are given for “HBD-4: human β-defensin, constitutive expression (EFELDRICGYGTARCRKKCRSQEYRIGRCPNTYACCLRKWDESLLNRTKP; UniProt Q8WTQ1 23-72, looked up)”?
**A.** MIC (S. cerevisiae): (MIC > 100 μg/ml);; MIC (Escherichia Coli; weak antimicrobial activity): (MIC > 100 μg/ml);; MIC (S. Carnosous): (MIC = 4.5 μg/ml); MIC (B. cepacea): (MIC > 100 μg/ml);; MIC (S. pneumoniae): (MIC > 100 μg/ml);; MIC (S. Aureus [2]): (MIC > 100 μg/ml);; MIC (P. aeruginosa): (MIC = 4.1 μg/ml)

**Q.** With “HNP-1: human α-defensin inside neutrophils” as the substance, how does the Bactericide concentrations ([3]; Gram-positive and Gram-negative bacteria) read?
**A.** Its Bactericide concentrations is “greater than 100 μl;”.

**Q.** Which Activity ([3]; in words, relative to HNP-1) does the source give for “HNP-2: truncated human α-defensin (CYCRIPACIAGERRYGTCIYQGRLWAFCC; Neutrophil defensin 2; UniProt P59665 66-94, looked up)” here?
**A.** Its Activity is “Like HPN-1”.

**Q.** For “radiomarked HBD-3: recombinant human β-defensin-3 marked with 99mTc+ exa-coordinated with 3 molecules of CO and H2O (GIINTLQKYYCRVRGGRCAVLSCLPKEEQIGKCSTRGRKCCRRKK; cysteine pairing not given here; also: 99mTc(CO)3 label, site not given here; UniProt P81534 23-67, looked up)”, which “Number of CFU existing in the plates” value (E. Coli; [5]) is on record?
**A.** The value was over 800 CFU.

**Q.** What about the “Number of CFU existing in the plates” value (E. Coli; dilution 1:13450) of the same substance?
**A.** Its value is 310 CFU.

**Q.** And the “biological activity of HBD-3 after marking with 99mTc” value (E. Coli; towards E. Coli (lower than towards S. Aureus))?
**A.** The value was “maintained biological activity”.

**Q.** What about the “tracer's captation in the infection seats relative to the inflammation seats” value (infection by S. Aureus; rats, 5 hours as from the tracer's injection, cpm/g of tissue) of the same substance?
**A.** The value was 3 times.

**Q.** And the “fixation of tracer, inflammatory lesions versus normal muscles” value (infection by S. Aureus; rats, in the whole experiment (1, 3 and 5 hours))?
**A.** The value was “no significant fixation differences”.

**Q.** And the “tracer's captation, infection seats versus inflammation seats” value (infection by S. Aureus; rats, one hour as from the injection)?
**A.** Its value is “no significant differences”.

**Q.** What about the “dependency of the radiopharmaceutical captation ratio (abscess vs inflammation seat and normal muscle) on dose” value (infection by S. Aureus; single rats 1-9, doses from 1,6 to 5,2 μg) of the same substance?
**A.** Its value is “dose-depending”.

**Q.** And the “Number of CFU existing in the plates” value (S. Aureus [4]; [5])?
**A.** Its value is 348 CFU.

**Q.** What about the “Number of CFU existing in the plates” value (S. Aureus [4]; dilution 1:13450) of the same substance?
**A.** The value was 17 CFU.

**Q.** What about the “biological activity of HBD-3 after marking with 99mTc” value (S. Aureus [4]; towards S. Aureus (greater than towards E. Coli)) of the same substance?
**A.** Its value is “maintained biological activity”.
